According to US20220291203A1, “METHODS OF MEASURING CELL-MEDIATED KILLING BY EFFECTORS” (IMMUNOWAKE INC., priority 2019, published 2022):
Entries after “also recorded” stand apart in the source; their conditions may differ.

Test system: dual reporter MDA-MB-231 cells (MDA-MB-231 WT)
Assay: T cell killing in 3D tumor-fibroblast spheroids (Example 17)
Format: cell-based, human
Conditions: nivolumab 0.5 μg/mL; 3D spheroids, 3E:1T
Excerpt: Dual reporter MDA-MB-231 cell line with PD-L1 knockout (KO) (hereinafter referred to as “dual reporter MDA-MB-231 PD-L1 KO cells” or “MDA-MB-231 KO”) was constructed by co-transducing the Tet-on snLuc-GFP construct as constructed in Example 1 and CRISPR/Cas9 constructs targeting PD-L1. 3D tumor-fibroblast spheroids were generated by co-culturing 10,000 human dermal fibroblasts and 10,000 dual reporter MDA-MB-231 cells (“MDA-MB-231 WT”) or dual reporter MDA-MB-231 PD-L1 KO cells in ultra-low attachment plates for 3 days. After spheroid formation, 30,000 unstimulated primary T cells (3E:1T) were added in the presence of increasing concentrations of trispecific anti-HER2/anti-CD47/anti-CD3 antibody (serially diluted 5-fold, 1000 ng/mL-0.032 ng/mL), and without or with anti-PD-1 antibody nivolumab (0.5 μg/mL).
The trispecific anti-HER2/anti-CD47/anti-CD3 antibody (made in house) has no Fc function due to LALA mutations and cannot mediate ADCC. The cell-killing reaction was incubated for 48 hours. […] Cell culture media was taken one day post-induction with doxycycline (t=72 hr), and luminescence was measured on a GloMax Discover Microplate Reader. Percent cell survival was defined as luminescence readout at various antibody concentrations relative to the average readout with no antibody. […]

nivolumab
effect of nivolumab on trispecific antibody-mediated T cell killing: rescued T cell killing on dual reporter MDA-MB-231 cells; also recorded: could rescue the immunosuppression on cytotoxic T cells
